Measured values as given in patent publication US6022901A, “Administration of resveratrol to prevent or treat restenosis following coronary intervention” (priority 1998, dated 2000).

Tests used:
[1] = tested on: cyclooxygenase; conditions: antipromotion activity; cited from earlier work
[2] = Resveratrol concentration in mouse plasma after oral administration in diet (HPLC); type: in vivo, mouse (Female Mice Strain A); conditions: for concentration at 1008 h: plasma, po, 6 weeks
From the text: (§1) This experimental work assesses the bioavailability of resveratrol when administered orally to Female Mice Strain A, establishes the relationship betveen oral administration of resveratrol and the plasma concentration of the female mice, assesses the method of analysis for mouse plasma and establishes the detection limit of resveratrol in animal plasma. The mice were received from the Biological Testing Branch, National Cancer Institute, at 4-6 weeks of age, each having a body weight of approximately 16 g.
After a quarantine period of one week, seven (7) groups each consisting of 10 mice were given resveratrol mixed with Teklad 4% Mouse/Rat chow ad libitum for a 6-week treatment period.
(§2) Parameters monitored during the course of the study included sided-cage observations twice daily and body weight. Blood samples were taken at the end of the treatment period of 6 weeks and kept frozen at -20° C.±5 until the time of analysis. All animals were sacrificed by asphyxiation.
Plasma resveratrol concentration was determined by a liquid-liquid extraction method and reverse phase HPLC at Pharmascience Inc., Bio-analytical Division, Quebec, Canada, as follows. After addition of internal standard and buffer to plasma samples, ethyl acetate was then added. The extracted organic phase was transferred to a clean tube and dried with a nitrogen evaporator. The residue was reconstituted with the mobile phase and then injected to HPLC with UV at 310 nm.

[3] = Effect of Resveratrol on Body Weight of Female A/J Mice (diet, 6-week treatment); type: in vivo
From the text: as §1
After a quarantine period of one week, seven (7) groups each consisting of 10 mice were given resveratrol mixed with Teklad 4% Mouse/Rat chow ad libitum for a 6-week treatment period. As indicated in the table which follows, the concentration of resveratrol ranged from 125 mg/kg of diet to 3000 mg/kg of diet, with one group, as the control group, receiving only the mouse chow.
as §2

Oc1ccc(C=Cc2cc(O)cc(O)c2)cc1 [resveratrol, 3,5,4'-trihydroxy stilbene]
inhibition of cyclooxygenase [1]: inhibited cyclooxygenase
oral absorption ([2]; mixed with chow): easily absorbed by the oral route
relationship between plasma resveratrol levels and amount administered ([2]; oral in diet, FIG. 1): linear relationship
concentration at 1008 h ([2]; 125 mg/kg diet, n=5): 10.8 ng/mL
concentration at 1008 h ([2]; 250 mg/kg diet, n=4): 87.9 ng/mL
concentration at 1008 h ([2]; 500 mg/kg diet, n=5): 56.8 ng/mL
concentration at 1008 h ([2]; 1000 mg/kg diet, n=5): 99 ng/mL
concentration at 1008 h ([2]; 2000 mg/kg diet, n=5): 178 ng/mL
concentration at 1008 h ([2]; 3000 mg/kg diet, n=5): 447 ng/mL
mean body weight ([3]; 125 ppm, day 5, N=10): 16.4 Grams
mean body weight ([3]; 125 ppm, day 8, N=10): 16.6 Grams
mean body weight ([3]; 125 ppm, day 12, N=10): 17.3 Grams
mean body weight ([3]; 125 ppm, day 15, N=10): 18.0 Grams
mean body weight ([3]; 125 ppm, day 19, N=10): 18.4 Grams
mean body weight ([3]; 125 ppm, day 22, N=10): 18.7 Grams
mean body weight ([3]; 125 ppm, day 26, N=10): 19.0 Grams
mean body weight ([3]; 125 ppm, day 29, N=10): 19.0 Grams
mean body weight ([3]; 125 ppm, day 33, N=10): 19.4 Grams
mean body weight ([3]; 125 ppm, day 36, N=10): 19.3 Grams
mean body weight ([3]; 125 ppm, day 40, N=10): 19.2 Grams
mean body weight ([3]; 125 ppm, day 42, N=10): 19.7 Grams
mean body weight ([3]; 250 ppm, day 5, N=10): 16.2 Grams
mean body weight ([3]; 250 ppm, day 8, N=10): 16.8 Grams
mean body weight ([3]; 250 ppm, day 12, N=10): 17.7 Grams
mean body weight ([3]; 250 ppm, day 15, N=10): 18.4 Grams
mean body weight ([3]; 250 ppm, day 19, N=10): 18.9 Grams
mean body weight ([3]; 250 ppm, day 22, N=10): 19.0 Grams
mean body weight ([3]; 250 ppm, day 26, N=10): 19.3 Grams
mean body weight ([3]; 250 ppm, day 29, N=10): 19.4 Grams
mean body weight ([3]; 250 ppm, day 33, N=10): 19.7 Grams
mean body weight ([3]; 250 ppm, day 36, N=10): 19.6 Grams
mean body weight ([3]; 250 ppm, day 40, N=10): 19.9 Grams
mean body weight ([3]; 250 ppm, day 42, N=10): 19.9 Grams
mean body weight ([3]; 500 ppm, day 5, N=10): 16.6 Grams
mean body weight ([3]; 500 ppm, day 8, N=10): 17.5 Grams
mean body weight ([3]; 500 ppm, day 12, N=10): 17.8 Grams
mean body weight ([3]; 500 ppm, day 15, N=10): 18.3 Grams
mean body weight ([3]; 500 ppm, day 19, N=10): 18.7 Grams
mean body weight ([3]; 500 ppm, day 22, N=10): 19.2 Grams
mean body weight ([3]; 500 ppm, day 26, N=10): 19.4 Grams
mean body weight ([3]; 500 ppm, day 29, N=10): 19.8 Grams
mean body weight ([3]; 500 ppm, day 33, N=10): 19.8 Grams
mean body weight ([3]; 500 ppm, day 36, N=10): 20.1 Grams
mean body weight ([3]; 500 ppm, day 40, N=10): 20.0 Grams
mean body weight ([3]; 500 ppm, day 42, N=10): 20.2 Grams
mean body weight ([3]; 1000 ppm, day 5, N=10): 16.1 Grams
mean body weight ([3]; 1000 ppm, day 8, N=10): 16.9 Grams
mean body weight ([3]; 1000 ppm, day 12, N=10): 17.4 Grams
mean body weight ([3]; 1000 ppm, day 15, N=10): 18.2 Grams
mean body weight ([3]; 1000 ppm, day 19, N=10): 18.1 Grams
mean body weight ([3]; 1000 ppm, day 22, N=10): 18.8 Grams
mean body weight ([3]; 1000 ppm, day 26, N=10): 19.0 Grams
mean body weight ([3]; 1000 ppm, day 29, N=10): 19.3 Grams
mean body weight ([3]; 1000 ppm, day 33, N=10): 19.5 Grams
mean body weight ([3]; 1000 ppm, day 36, N=10): 19.8 Grams
mean body weight ([3]; 1000 ppm, day 40, N=10): 19.5 Grams
